Data on 35 compounds can be found in ChEMBL document CHEMBL1130023, “Conformationally constrained [p-(omega-aminoalkyl)phenacetyl]-L-seryl-L-lysyl dipeptide amides as potent peptidomimetic inhibitors of Candida albicans and human myristoyl-CoA:protein N-myristoyl transferase” (J Med Chem, 1997).

Non-standard residues stand in square brackets, D forms with d. Residues, ends and D or L forms follow the SMILES beside them. *: point of attachment. Cha = N[C@@H](CC1CCCCC1)C(=O)O; Chg = N[C@H](C(=O)O)C1CCCCC1; NHPhenethyl = c1ccc(CCN*)cc1; 12Ado = NCCCCCCCCCCCC(=O)O; Aun = NCCCCCCCCCCC(=O)O; Ahp = NCCCCCCC(=O)O; βAla = NCCC(=O)O; Sar = CNCC(=O)O

The target of test [1] is T1, Peptide N-myristoyltransferase (Homo sapiens, UniProt P30419+O60551).
T1 sequence (P30419 whole entry): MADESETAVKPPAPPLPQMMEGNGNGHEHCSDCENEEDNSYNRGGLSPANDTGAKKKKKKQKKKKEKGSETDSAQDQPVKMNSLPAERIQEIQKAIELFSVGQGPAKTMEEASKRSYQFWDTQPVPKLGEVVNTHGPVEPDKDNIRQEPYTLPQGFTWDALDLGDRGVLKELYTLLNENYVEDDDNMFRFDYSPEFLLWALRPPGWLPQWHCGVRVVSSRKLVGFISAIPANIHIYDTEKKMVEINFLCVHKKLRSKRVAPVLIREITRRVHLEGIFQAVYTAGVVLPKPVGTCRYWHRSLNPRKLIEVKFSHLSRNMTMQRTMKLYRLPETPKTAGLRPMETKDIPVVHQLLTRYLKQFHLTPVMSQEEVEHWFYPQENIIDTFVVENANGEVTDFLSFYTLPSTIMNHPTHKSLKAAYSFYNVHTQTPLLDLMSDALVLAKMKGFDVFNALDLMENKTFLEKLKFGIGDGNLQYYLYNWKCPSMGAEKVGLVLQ
T1 sequence (O60551 whole entry): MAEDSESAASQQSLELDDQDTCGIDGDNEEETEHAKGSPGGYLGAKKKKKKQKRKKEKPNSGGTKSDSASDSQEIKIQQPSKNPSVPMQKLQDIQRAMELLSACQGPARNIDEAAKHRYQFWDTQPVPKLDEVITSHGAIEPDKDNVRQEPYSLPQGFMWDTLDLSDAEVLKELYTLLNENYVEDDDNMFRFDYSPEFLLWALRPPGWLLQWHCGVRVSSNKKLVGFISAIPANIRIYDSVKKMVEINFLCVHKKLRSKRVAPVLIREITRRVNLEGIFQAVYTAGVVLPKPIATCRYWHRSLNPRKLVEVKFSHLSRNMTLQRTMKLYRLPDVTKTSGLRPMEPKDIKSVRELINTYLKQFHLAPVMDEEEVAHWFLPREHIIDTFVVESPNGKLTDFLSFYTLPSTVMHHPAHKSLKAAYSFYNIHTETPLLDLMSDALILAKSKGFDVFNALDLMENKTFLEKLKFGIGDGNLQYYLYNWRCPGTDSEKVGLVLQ
Briefly: Inhibition of human N-myristoyltransferase (NMT). The class given is protein assay.

Test [2] is described as follows: Ratio of the IC50 against human NMT to the IC50 against Candida albicans NMT.
Test [3] addresses T2, Glycylpeptide N-tetradecanoyltransferase (Candida albicans (strain SC5314 / ATCC MYA-2876) (Yeast), UniProt P30418).
T2 sequence (P30418 whole entry): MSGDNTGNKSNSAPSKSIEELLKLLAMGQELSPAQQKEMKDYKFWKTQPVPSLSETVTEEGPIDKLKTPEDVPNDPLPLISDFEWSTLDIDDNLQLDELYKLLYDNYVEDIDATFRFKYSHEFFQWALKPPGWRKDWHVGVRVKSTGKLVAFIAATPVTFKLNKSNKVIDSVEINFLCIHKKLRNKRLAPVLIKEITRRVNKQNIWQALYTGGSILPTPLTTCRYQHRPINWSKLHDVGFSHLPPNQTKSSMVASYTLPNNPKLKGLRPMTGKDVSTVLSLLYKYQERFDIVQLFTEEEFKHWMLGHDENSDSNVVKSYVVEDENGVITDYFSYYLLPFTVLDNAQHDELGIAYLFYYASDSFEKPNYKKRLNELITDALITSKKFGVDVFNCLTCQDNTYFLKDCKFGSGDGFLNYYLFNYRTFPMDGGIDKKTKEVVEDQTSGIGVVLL
Briefly: Inhibitory activity against N-myristoyltransferase (NMT) of candida albicans.

In test [4] the target is Glycylpeptide N-tetradecanoyltransferase (Candida albicans) (UniProt P30418). Briefly: The binding affinity was evaluated towards N-myristoyltransferase (NMT) in the presence of the peptide substrate GNAASARR-NH2.
In test [5] the target is T1, Peptide N-myristoyltransferase. Briefly: The binding affinity was evaluated against the acyl transferase's peptide, N-myristoyltransferase binding site. The class given is protein assay.

Consider `CC(C(=O)N[C@@H](CO)C(=O)N[C@@H](CCCCN)C(=O)NCCC1CCCCC1)c1ccc(CCCCCCN)cc1` (stereo not given in full), for which the IC50 in test [1] turned out to be 0.79 µM; in test [3], 0.043 µM. Besides, in test [2], the Ratio turned out to be 18. `COC(=O)[C@H](CC(C)C)NC(=O)[C@H](CCCCN)NC(=O)[C@H](CO)NC(=O)CCCCCCCCCCCN` (H-[12Ado]SKL-OMe): the half-inhibitory concentration (IC50) in test [3] amounted to 0.27 µM. Still for that read-out and setting: under `CC(C)CNC(=O)[C@H](CCCCN)NC(=O)[C@H](CO)NC(=O)CCCCCCCCCCN` stands > 10 µM; under `COC(=O)[C@H](CC(C)C)NC(=O)[C@H](CCCCN)NC(=O)[C@H](CO)NC(=O)CCCCCCCCN`, 5.2 µM. On the same count and under the same terms, the value for `CC(C)[C@H](NC(=O)[C@H](CCCCN)NC(=O)[C@H](CO)NC(=O)CCCCCCCCCCN)C(N)=O` (H-[Aun]SKV-NH2) was 19 µM. Take `CC(C)CCNC(=O)[C@H](CCCCN)NC(=O)[C@H](CO)NC(=O)CCCCCCCCCCN`: the Ratio in test [2] stood at 0.5. The midpoint of inhibition in test [3], the IC50, lay at 0.78 µM. For the compound `NCCCC[C@H](NC(=O)[C@H](CO)NC(=O)CCCCCCc1ccc(CN)cc1)C(=O)NCCC1CCCCC1`, the IC50 is 1.5 µM in test [1] and 0.34 µM in test [3]. Besides, the Ratio in test [2] worked out at 4.4.

Regarding `NCCCCCCc1ccc(CC(=O)N[C@@H](CO)C(=O)N[C@@H](CCCCN)C(=O)NCCC2CCCCC2)cc1`, the IC50 in test [1] was determined as 0.8 µM; in test [3], 0.11 µM. In addition, the Ki in test [4] was determined as 0.06 µM. Besides, the Ratio in test [2] was 7.3.

Take `COC(=O)[C@H](CC(C)C)NC(=O)[C@H](CCCCN)NC(=O)[C@H](CO)NC(=O)CCCCCCN` (H-[Ahp]SKL-OMe): in test [3], the concentration for half-maximal inhibition (IC50) is > 100 µM. Still for that read-out and setting: under `CC[C@H](C)[C@H](NC(=O)[C@H](CCCCN)NC(=O)[C@H](CO)NC(=O)CCCCCCCCCCN)C(N)=O` (H-[Aun]SKI-NH2) stands 3.9 µM; under `C[C@H](NC(=O)[C@H](CCCCN)NC(=O)[C@H](CO)NC(=O)CCCCCCCCCCN)C(N)=O` (H-[Aun]SKA-NH2), 16 µM; under `CC(C)C[C@H](NC(=O)CCN)C(=O)N[C@@H](Cc1ccc(O)cc1)C(=O)N[C@@H](C)C(=O)N[C@@H](CO)C(=O)N[C@@H](CCCCN)C(=O)N[C@@H](CC(C)C)C(=O)N[C@@H](CO)C(N)=O` (H-[βAla]LYASKLS-NH2), 110 µM. Still for that read-out and setting: under `NCCCCCCCCCCC(=O)N[C@@H](CO)C(=O)N[C@@H](CCCCN)C(=O)N[C@@H](Cc1ccccc1)C(N)=O` (H-[Aun]SKF-NH2) stands 8.2 µM. Take `NCCCCCCCCCCC(=O)N[C@@H](CO)C(=O)N[C@@H](CCCCN)C(=O)NCCCC1CCCCCCC1`: the values for the 50% inhibitory concentration (IC50) in test [1] and in test [3] were 1.14 µM and 0.3 µM, respectively. Besides, the Ratio in test [2] amounted to 3.8.

`CC(C)CCNC(=O)[C@@H](CCCCN)NC(=O)[C@@H](CO)NC(=O)CCCCCCCCCCN`: the half-inhibitory concentration (IC50) in test [3] is 365 µM. Take `NCCCCCCCCCCC(=O)N[C@@H](CO)C(=O)N[C@@H](CCCCN)C(=O)NCC(N)=O` (H-[Aun]SKG-NH2): the IC50 in test [3] is 16 µM. On the same count and under the same terms, the value for `CC(C)C[C@H](NC(=O)[C@H](CCCCN)NC(=O)[C@H](CO)NC(=O)CCCCCCCCCCN)C(N)=O` (stereo in doubt) was > 1000 µM. Regarding `NCCCCCCCCCCC(=O)N[C@@H](CO)C(=O)N[C@@H](CCCCN)C(=O)N[C@H](C(N)=O)C1CCCCC1` (H-[Aun]SK[Chg]-NH2), the IC50 in test [3] was 0.76 µM. In the case of `NCCCCCc1cccc(CC(=O)N[C@@H](CO)C(=O)N[C@@H](CCCCN)C(=O)NCCC2CCCCC2)c1`, the IC50 was determined as 1.8 µM in test [1] and 0.52 µM in test [3]. The Ratio in test [2] is 3.5. For `NCCCCCCCCc1ccc(CC(=O)N[C@@H](CO)C(=O)N[C@@H](CCCCN)C(=O)NCCC2CCCCC2)cc1`, in that order: 53 µM, 0.75 µM and 70. Compound `NCCCCCCCCCCC(=O)N[C@@H](CO)C(=O)N[C@@H](CCCCN)C(=O)NCCc1ccccc1` (H-[Aun]-Ser-Lys-NHPhenethyl) registered an IC50 in test [3] of 5 µM.

For `NCCCC[C@H](NC(=O)[C@H](CO)NC(=O)Cc1ccc(CCc2ccc(CN)cc2)cc1)C(=O)NCCC1CCCCC1`, the IC50 stood at 62 µM in test [1] and 0.75 µM in test [3]. For the same compound, the Ratio in test [2] amounted to 83. In test [3], `CC(C)C[C@H](NC(=O)[C@H](CCCCN)NC(=O)[C@H](CO)NC(=O)CCCCCCCCCCN)C(N)=O` (stereo in doubt; 3a) came in with a half-inhibitory concentration (IC50) of 1.2 µM. The same measure, in the same setting: the value for `CC(C)(C)CCNC(=O)[C@H](CCCCN)NC(=O)[C@H](CO)NC(=O)CCCCCCCCCCN` was 1.2 µM; that for `CNCCCCCCCCCCC(=O)N[C@@H](CO)C(=O)N[C@@H](CCCCN)C(=O)N[C@@H](CC(C)C)C(=O)OC` was 0.35 µM. For the compound H-ALYASKLS-NH2, in test [5], the Ki app is 15.3 µM. In test [3], `COC(=O)[C@H](CC(C)C)NC(=O)[C@H](CCCCN)NC(=O)[C@H](CO)NC(=O)CCCCCCCCCCN(C)C` came in with an IC50 of 0.69 µM.

`COC(=O)[C@H](CC(C)C)NC(=O)[C@H](CCCCN)NC(=O)[C@H](CO)NC(=O)CCCCCCCCCCN` (H-[Aun]SKL-OMe) yielded an IC50 in test [3] of 0.6 µM. Still for that read-out and setting: the value for `NCCCCCCCCCCC(=O)N[C@@H](CO)C(=O)N[C@@H](CCCCN)C(=O)N[C@@H](CC1CCCCC1)C(N)=O` (H-[Aun]SK[Cha]-NH2) was 0.36 µM; that for `CNCC(=O)N[C@@H](CC(C)C)C(=O)N[C@@H](Cc1ccc(O)cc1)C(=O)N(C)CC(=O)N[C@@H](CO)C(=O)N[C@@H](CCCCN)C(=O)N[C@@H](CC(C)C)C(=O)N[C@@H](CO)C(N)=O` (H-[Sar]LY[Sar]SKLS-NH2) was 80 µM; that for `COC(=O)[C@H](CC(C)C)NC(=O)[C@H](CCCCN)NC(=O)[C@H](CO)NC(=O)CCCCCCCCCN` was 0.3 µM. Same read-out and setting: under `NCCCCCCCCCCC(=O)N[C@@H](CO)C(=O)N[C@@H](CCCCN)C(=O)NCCCC1CCCCC1` stands 1.3 µM. The same measure, in the same setting: the value for `NCCCC[C@H](NC(=O)[C@H](CO)NC(=O)Cc1ccc(C#Cc2ccc(CN)cc2)cc1)C(=O)NCCC1CCCCC1` was > 10 µM. `NCCCC[C@H](NC(=O)[C@H](CO)NC(=O)CCCCC#Cc1ccc(CN)cc1)C(=O)NCCC1CCCCC1`: the half-maximal inhibitory concentration (IC50) in test [1] was found to be 0.76 µM; in test [3], 0.17 µM. The Ratio in test [2] was found to be 4.5. For `NCCCCCc1ccc(CC(=O)N[C@@H](CO)C(=O)N[C@@H](CCCCN)C(=O)NCCC2CCCCC2)cc1`, in that order: 0.99 µM, 0.19 µM and 5.2.
